Measured values: patent US12187816B2, “Macrocyclic compounds and methods of use thereof” (Genentech, Inc., priority 2020, dated 2025)
Starred links: 1 amine or outer side, 2 acyl side, 3 side chain; linkers in the order of their positions; H or OH if unused. Positions of bridges follow the written chain, without caps; N, C: chain ends. Non-standard residues stand in square brackets, D forms with d. Residues, ends and D or L forms follow the SMILES beside them. Groups on a side chain read outwards from the residue. *: point of attachment. β3hPhg(4-(4-MeThiazol-5-yl)) = Cc1ncsc1-c1ccc([C@@H](CC(=O)[*:2])N[*:1])cc1; JQ1acid = Cc1sc2c(c1C)C(c1ccc(Cl)cc1)=N[C@@H](CC(=O)*)c1nnc(C)n1-2; dPhg(4-(4-Me-thiazol-5-yl)) = Cc1ncsc1-c1ccc([C@@H](N)C(=O)O)cc1; Phg(4-(4-Me-thiazol-5-yl)) = Cc1ncsc1-c1ccc([C@H](N)C(=O)O)cc1; X2 = COc1ccc2c(c1)C(c1ccc(Cl)cc1)=N[C@@H](CC(=O)*)c1nnc(C)n1-2; X12 = Cc1sc2c(c1C)C(c1ccc(Cl)cc1)=N[C@H](CC(=O)*)c1nnc(C)n1-2; X6 = Cc1ncsc1-c1ccc([C@H](CC(=O)[*:2])N[*:1])cc1; dBip = N[C@H](Cc1ccc(-c2ccccc2)cc1)C(=O)O; NHCH2CH2SCH2CO = O=C(CSCCN[*:1])[*:2]; Ile(3-Me) = CCC(C)(C)[C@H](N)C(=O)O; Hyp = O=C(O)[C@@H]1C[C@@H](O)CN1; d4Pal = N[C@H](Cc1ccncc1)C(=O)O; Tle = CC(C)(C)[C@H](N)C(=O)O; AEEEA = NCCOCCOCCOCC(=O)O; dDap = NC[C@@H](N)C(=O)O; Ahx = NCCCCCC(=O)O; AEA = NCCOCC(=O)O

These compounds were tested against T1, BRD4 (Homo sapiens, UniProt O60885) (assay: BRD4 degradation assay in EOL1 cells (immunofluorescence imaging)). Settings: EoL-1 eosinophilic leukemia cells, 4 hours treatment, nuclear BRD4 immunofluorescence.
T1 construct: Mean 488 intensity of BRD4 quantitated in nuclear region; endogenous in cells; host or cells: EoL-1 eosinophilic leukemia cells
Format: cell-based
Procedure: BRD4 Degradation Assay in EOL1 Cells
EoL-1 eosinophilic leukemia cells were seeded on day 1 at a density of 45,000 cells per well in Corning PureCoat Amine Microplates, (Corning #354719) in 45 μL/well of assay media (RPMI, 10% FBS, containing L-glutamine). After cells attached to cell plate, compounds were serially diluted ⅓ in dimethylsulfoxide (DMSO) to create 20-point dilutions across a 384 well v-bottom polypropylene microplate (Greiner #781091). 2 μL of each sample from the serial dilution was transferred to 98 μL of assay media as an intermediate dilution. 5 μL of each well of the intermediate dilution was added to 45 μL of cell plate. Columns 1, 2, 23 and 24 were treated with only 0.2% final concentration of DMSO for data normalization as “neutral controls”. After compound treatment, cell plates were stored in a 37° C. incubator for 4 hours. After 4 hours cells were fixed in 3.7% w/v final concentration of paraformaldehyde by addition of 15 μL of 16% w/v paraformaldehyde (Electron Microscopy Sciences #15710-S) directly to the 50 μL media and compound in the cell plate. Cell plate was incubated at RT for 20 minutes. Well contents were aspirated and washed with 100 μL/well PBS 3 times. 50 ul/well of phosphate Buffered Saline (PBS) (pH 7.5) containing 0.5% w/v bovine serum albumen, 0.5% w/v Triton X-100 (Block/Permeabilization Buffer) was added to each well. Samples were incubated for 20 minutes. Well contents were aspirated and washed 3 times with 100 μL/well of PBS. PBS was aspirated from the well and 50 μL per well of EoL-1 Block Buffer (PBS containing 10% Normal Goat Serum (AbCam #ab7481)) was added to each well. Plates were incubated at room temperature for 30 minutes. Block buffer was decanted from the wells. Immunofluorescence staining of BRD4 was carried out by diluting mAB Anti-BRD4 [EPR5150] antibody (Abcam 128874) 1:500 into Antibody Dilution Buffer (PBS, 2% Normal Goat Serum). 25 μL per well of BRD4 antibody diluted in buffer was added and incubated overnight at 4° C.
On day-2 samples were washed 3 times with 100 μL/well of PBS. 25 μL/well of secondary antibody solution (Goat Anti-Rabbit IgG, DyLight 488 Conjugated Highly Cross-adsorbed Thermo Fisher #35553) and Hoechst 33342 1 μg/ml diluted in Antibody Dilution Buffer) were dispensed into each well. Hoechst 33342 only was added to bottom 3 columns for data normalization as “inhibitor controls”. Samples were incubated for 2 hours at room temperature. Samples were washed 3 times with 100 μL PBS. Quantitative fluorescence imaging of BRD4 was carried out using an Opera Phenix High-Content Screening System. Fluorescent images of the samples were captured using 488 nm and 405 nm channels. Hoechst channel was used to identify nuclear region. Mean 488 intensity of BRD4 quantitated in nuclear region. Data analysis was carried out using Genedata Screener, with DMSO and no primary antibody control treated samples being used to define the 0% and 100% changes in BRD4. The dose-response log(inhibitor) vs. response used to define the inflexion point of curve (DC50) and the plateau of the maximal effect.
The individual topological polar surface area (TPSA) and cLogP values were calculated using Chemdraw v. 15.1 (PerkinElmer). Half life of the ternary VHL/BD1 and VHL/BD2 complexes, DC50 of BRD4 in EOL1 cells, topological polar surface area of a molecule (TPSA) and c log P (lipophilicity) for compounds described herein are provided in Table 3.

| Compound | DC50 |
| --- | --- |
| Cc1ncsc1-c1ccc([C@@H]2NC(=O)[C@@H]3C[C@@H](O)CN3C(=O)[C@H](C(C)(C)C)NC(=O)CCCCCNC(=O)[C@@H](CNC(=O)C[C@@H]3N=C(c4ccc(Cl)cc4)c4c(sc(C)c4C)-n4c(C)nnc43)NC(=O)CNC2=O)cc1 [Compound 39] (cyclo([Ahx][Tle][Hyp][Phg(4-(4-Me-thiazol-5-yl))]G[dDap](JQ1acid))) | < 1000 nM |
| Cc1sc2c(c1C)C(c1ccc(Cl)cc1)=N[C@@H](CC(=O)NC[C@H]1NC(=O)CNC(=O)[C@@H](Cc3ccc(-c4ccccc4)cc3)NC(=O)[C@@H]3C[C@@H](O)CN3C(=O)[C@H](C(C)(C)C)NC(=O)COCCNC1=O)c1nnc(C)n1-2 [Compound 40] (cyclo([AEA][Tle][Hyp][dBip]G[dDap](JQ1acid))) | < 50 nM |
| Cc1sc2c(c1C)C(c1ccc(Cl)cc1)=N[C@@H](CC(=O)NC[C@H]1NC(=O)[C@@H](C)NC(=O)[C@@H](Cc3ccc(-c4ccccc4)cc3)NC(=O)[C@@H]3C[C@@H](O)CN3C(=O)[C@H](C(C)(C)C)NC(=O)COCCNC1=O)c1nnc(C)n1-2 [Compound 41] (cyclo([AEA][Tle][Hyp][dBip][dA][dDap](JQ1acid))) | < 50 nM |
| Cc1sc2c(c1C)C(c1ccc(Cl)cc1)=N[C@@H](CC(=O)NC[C@H]1NC(=O)[C@@H](C(C)C)NC(=O)[C@@H](Cc3ccc(-c4ccccc4)cc3)NC(=O)[C@@H]3C[C@@H](O)CN3C(=O)[C@H](C(C)(C)C)NC(=O)COCCNC1=O)c1nnc(C)n1-2 [Compound 42] (cyclo([AEA][Tle][Hyp][dBip][dV][dDap](JQ1acid))) | < 50 nM |
| Cc1sc2c(c1C)C(c1ccc(Cl)cc1)=N[C@@H](CC(=O)NC[C@H]1NC(=O)[C@@H](Cc3ccncc3)NC(=O)[C@@H](Cc3ccc(-c4ccccc4)cc3)NC(=O)[C@@H]3C[C@@H](O)CN3C(=O)[C@H](C(C)(C)C)NC(=O)COCCNC1=O)c1nnc(C)n1-2 [Compound 43] (cyclo([AEA][Tle][Hyp][dBip][d4Pal][dDap](JQ1acid))) | < 50 nM |
| Cc1sc2c(c1C)C(c1ccc(Cl)cc1)=N[C@@H](CC(=O)NC[C@H]1NC(=O)[C@@H](Cc3ccccc3)NC(=O)[C@@H](Cc3ccc(-c4ccccc4)cc3)NC(=O)[C@@H]3C[C@@H](O)CN3C(=O)[C@H](C(C)(C)C)NC(=O)COCCNC1=O)c1nnc(C)n1-2 [Compound 44] (cyclo([AEA][Tle][Hyp][dBip][dF][dDap](JQ1acid))) | < 50 nM |
| Cc1sc2c(c1C)C(c1ccc(Cl)cc1)=N[C@@H](CC(=O)NC[C@H]1NC(=O)[C@@H](Cc3ccc(-c4ccccc4)cc3)NC(=O)[C@@H](Cc3ccc(-c4ccccc4)cc3)NC(=O)[C@@H]3C[C@@H](O)CN3C(=O)[C@H](C(C)(C)C)NC(=O)COCCNC1=O)c1nnc(C)n1-2 [Compound 45] (cyclo([AEA][Tle][Hyp][dBip][dBip][dDap](JQ1acid))) | < 1000 nM |
| Cc1ncsc1-c1ccc([C@H]2NC(=O)[C@@H]3C[C@@H](O)CN3C(=O)[C@H](C(C)(C)C)NC(=O)CSCCNC(=O)[C@@H](CNC(=O)C[C@@H]3N=C(c4ccc(Cl)cc4)c4c(sc(C)c4C)-n4c(C)nnc43)NC(=O)CNC2=O)cc1 [Compound 46] (cyclo(G[dDap](JQ1acid)[NHCH2CH2SCH2CO][Tle][Hyp][dPhg(4-(4-Me-thiazol-5-yl))])) | < 1000 nM |
| Cc1ncsc1-c1ccc([C@@H]2NC(=O)[C@@H]3C[C@@H](O)CN3C(=O)[C@H](C(C)(C)C)NC(=O)CSCCNC(=O)[C@@H](CNC(=O)C[C@@H]3N=C(c4ccc(Cl)cc4)c4c(sc(C)c4C)-n4c(C)nnc43)NC(=O)CNC2=O)cc1 [Compound 47] (cyclo(G[dDap](JQ1acid)[NHCH2CH2SCH2CO][Tle][Hyp][Phg(4-(4-Me-thiazol-5-yl))])) | > 20000 nM |
| Cc1sc2c(c1C)C(c1ccc(Cl)cc1)=N[C@@H](CC(=O)NC[C@H]1NC(=O)CNC(=O)[C@@H](Cc3ccc(-c4ccccc4)cc3)NC(=O)[C@@H]3C[C@@H](O)CN3C(=O)[C@H](C(C)(C)C)n3cc(nn3)COCCNC1=O)c1nnc(C)n1-2 [Compound 48] | < 50 nM |
| Cc1ncsc1-c1ccc([C@H]2NC(=O)[C@@H]3C[C@@H](O)CN3C(=O)[C@H](C(C)(C)C)NC(=O)CSC[C@H](C(N)=O)NC(=O)[C@@H](CNC(=O)COCCOCCOCCNC(=O)C[C@@H]3N=C(c4ccc(Cl)cc4)c4c(sc(C)c4C)-n4c(C)nnc43)NC(=O)CNC2=O)cc1 [Compound 49] ({CH2CO}-[Tle][Hyp][dPhg(4-(4-Me-thiazol-5-yl))]G[dDap]([AEEEA-JQ1acid])[dC]-NH2; thioether N-6) | > 20000 nM |
| COc1ccc2c(c1)C(c1ccc(Cl)cc1)=N[C@@H](CC(=O)NC[C@H]1NC(=O)CNC(=O)[C@@H](c3ccc(-c4scnc4C)cc3)NC(=O)[C@@H]3C[C@@H](O)CN3C(=O)[C@H](C(C)(C)C)NC(=O)CSC[C@H](C(N)=O)NC1=O)c1nnc(C)n1-2 [Compound 50] ({CH2CO}-[Tle][Hyp][dPhg(4-(4-Me-thiazol-5-yl))]G[dDap](X2)[dC]-NH2; thioether N-6) | < 1000 nM |
| COc1ccc2c(c1)C(c1ccc(Cl)cc1)=N[C@@H](CC(=O)NC[C@H]1NC(=O)CNC(=O)[C@H](c3ccc(-c4scnc4C)cc3)NC(=O)[C@@H]3C[C@@H](O)CN3C(=O)[C@H](C(C)(C)C)NC(=O)CSC[C@H](C(N)=O)NC1=O)c1nnc(C)n1-2 [Compound 51] ({CH2CO}-[Tle][Hyp][Phg(4-(4-Me-thiazol-5-yl))]G[dDap](X2)[dC]-NH2; thioether N-6) | > 20000 nM |
| COc1ccc2c(c1)C(c1ccc(Cl)cc1)=N[C@@H](CC(=O)NC[C@H]1NC(=O)[C@@H](C(C)C)NC(=O)[C@@H](Cc3ccc(-c4ccccc4)cc3)NC(=O)[C@@H]3C[C@@H](O)CN3C(=O)[C@H](C(C)(C)C)NC(=O)COCCNC1=O)c1nnc(C)n1-2 [Compound 52] (cyclo([AEA][Tle][Hyp][dBip][dV][dDap](X2))) | < 50 nM |
| Cc1ncsc1-c1ccc([C@H]2NC(=O)[C@@H]3C[C@@H](O)CN3C(=O)[C@H](C(C)(C)C)NC(=O)CSC[C@H](C(N)=O)NC(=O)[C@@H](CNC(=O)C[C@H]3N=C(c4ccc(Cl)cc4)c4c(sc(C)c4C)-n4c(C)nnc43)NC(=O)CNC2=O)cc1 [Compound 53] ({CH2CO}-[Tle][Hyp][dPhg(4-(4-Me-thiazol-5-yl))]G[dDap](X12)[dC]-NH2; thioether N-6) | > 20000 nM |
| Cc1ncsc1-c1ccc([C@@H]2CC(=O)NCC(=O)N[C@H](CNC(=O)C[C@@H]3N=C(c4ccc(Cl)cc4)c4c(sc(C)c4C)-n4c(C)nnc43)C(=O)NCCOCC(=O)N[C@@H](C(C)(C)C)C(=O)N3C[C@H](O)C[C@H]3C(=O)N2)cc1 [Compound 54] (cyclo([AEA][Tle][Hyp][X6]G[dDap](JQ1acid))) | < 50 nM |
| Cc1ncsc1-c1ccc([C@H]2CC(=O)NCC(=O)N[C@H](CNC(=O)C[C@@H]3N=C(c4ccc(Cl)cc4)c4c(sc(C)c4C)-n4c(C)nnc43)C(=O)NCCOCC(=O)N[C@@H](C(C)(C)C)C(=O)N3C[C@H](O)C[C@H]3C(=O)N2)cc1 [Compound 55] (cyclo([AEA][Tle][Hyp][β3hPhg(4-(4-MeThiazol-5-yl))]G[dDap](JQ1acid))) | < 1000 nM |
| Cc1sc2c(c1C)C(c1ccc(Cl)cc1)=N[C@@H](CC(=O)NC[C@H]1NC(=O)[C@@H](C)NC(=O)[C@@H](Cc3ccc(-c4ccccc4)cc3)NC(=O)[C@@H]3C[C@@H](O)CN3C(=O)[C@H](C(C)(C)C)n3cc(nn3)COCCNC1=O)c1nnc(C)n1-2 [Compound 56] | < 50 nM |
| CCC(C)(C)[C@@H]1NC(=O)COCCNC(=O)[C@@H](CNC(=O)C[C@@H]2N=C(c3ccc(Cl)cc3)c3c(sc(C)c3C)-n3c(C)nnc32)NC(=O)[C@@H](C)NC(=O)[C@@H](Cc2ccc(-c3ccccc3)cc2)NC(=O)[C@@H]2C[C@@H](O)CN2C1=O [Compound 57] (cyclo([AEA][Ile(3-Me)][Hyp][dBip][dA][dDap](JQ1acid))) | < 50 nM |
